Source: patent publication US9527859B2, “Amidopyridine derivative and use thereof” (Mitsubishi Tanabe Pharma Corporation, priority 2012, dated 2016)

Tested on: production of IL-17 in mouse splenocytes stimulated by recombinant mouse interleukin-23
Assay: Production of IL-17 induced when mouse splenocytes were stimulated by rm-IL-23 (ELISA)
Format: cell-based
Details: Splenocyte, inhibition of IL-17 production, rm-IL-23 1 nmol/L, 72 hours
Experimental: Effect on Production of IL-17 Induced when Mouse Splenocytes were Stimulated by Recombinant Mouse Interleukin-23 (rm-IL-23)
RPMI1640 media (Sigma-Aldrich) were used as a medium, to which 50 units/mL penicillin G potassium/50 μg/mL streptomycin (Gibco) and […] 2-mercaptoethanol (Sigma-Aldrich) were added, and then thereto was added 10% of fetal calf serum (FCS; Cell Culture Technology) which was treated at 56° C. for 30 minutes to be inactivated, and the mixture was used in the Test. The test compound was dissolved in dimethylsulfoxide and then diluted with 10% FCS-containing RPMI1640 medium to a desired concentration to be used. The spleens were aseptically taken out from 6 to 7 week-old male DBA/1J mice (Charles River Japan, Inc.) and a single cell suspension of splenocytes was prepared, which was hemolyzed by hypotonic treatment with a mixed solution of 0.83% aqueous solution of ammonium chloride and Tris-HCl buffer of pH 7.65 (9:1). A cell suspension prepared by using 10% FCS-containing RPMI1640 medium was added to a flat-bottomed 96 well microtestplate (Coaster) at 2×10^5 cells/well. Thereto were added test compounds and rm-IL-23 (R&D systems) were diluted with a medium to 1 to 1,000 nmol/L and 1 nmol/L of the final concentration, respectively, and the mixture was cultured at 37° C., 5% carbon dioxide and 95% air for 72 hours. After completion of the culture, culture supernatant was sampled and production amounts of IL-17 therein were determined by ELISA method. After sampling the supernatant, WST-8 (Seikagaku Corporation) was added at 10 μl/well and cultured at 37° C., 5% carbon dioxide and 95% air for 4 hours. Then, absorbance (O.D.: Optical Density) at 450 nm was measured by a microplate reader and the value was adopted as an index of cell survivability. An inhibition rate was calculated according to the following formula on the basis of an average of production amounts of IL-17 and O.D. values of the well containing a test compound of each concentration. Inhibition (%)=(1−(Average value of well with addition of test compound)/(Average value of well without addition of test compound))×100
Based on the dose-response curve obtained by plotting the inhibition rate in the longitudinal axis and the concentration in the horizontal axis, the concentration of the compound which inhibits the level to 50% of the value of the control group (IC50) (nmol/L) was determined by linear regression analysis.

IC50 [nM] | Compound
44.4 | Cc1ccc(-n2ncc(C(=O)Nc3cnc(N4CCC(C(C)(C)O)CC4)c(C)c3)c2C)cc1 [Example 56, N-{6-[4-(1-hydroxy-1-methylethyl)piperidin-1-yl]-5-methylpyridin-3-yl}-5-methyl-1-(4-methylphenyl)-1H-pyrazole-4-carboxamide]
33 | Cc1cc(NC(=O)c2cnn(-c3ccc(Cl)cn3)c2C)cnc1N1CCC(C(C)(C)O)CC1 [Example 58, 1-(5-chloropyridin-2-yl)-N-{6-[4-(1-hydroxy-1-methylethyl)piperidin-1-yl]-5-methylpyridin-3-yl}-5-methyl-1H-pyrazole-4-carboxamide]
66.8 | Cc1cc(NC(=O)c2cnc(-c3ccc(Cl)cc3)s2)cnc1N1CCC(C(C)(C)O)CC1 [Example 81, 2-(4-chlorophenyl)-N-{6-[4-(1-hydroxy-1-methylethyl)piperidin-1-yl]-5-methylpyridin-3-yl}thiazole-5-carboxamide]
87.7 | Cc1c(C(=O)Nc2cnc(N3CCC(CCO)CC3)c(Cl)c2)cnn1-c1ccc(Cl)cc1 [Example 74, N-{5-chloro-6-[4-(2-hydroxyethyl)piperidin-1-yl]pyridin-3-yl}-1-(4-chlorophenyl)-5-methyl-1H-pyrazole-4-carboxamide]
51.8 | COC(C)C1CCN(c2ncc(NC(=O)c3cnn(-c4ccc(C(F)(F)F)cn4)c3C)cc2C)CC1 (stereo not drawn) [Example 53, N-{6-[4-(1-methoxyethyl)piperidin-1-yl]-5-methylpyridin-3-yl}-5-methyl-1-[5-(trifluoromethyl)pyridin-2-yl]-1H-pyrazole-4-carboxamide]
30.4 | Cc1cc(NC(=O)c2cnn(-c3ccc(F)cn3)c2C)cnc1N1CCC(CC(C)(C)O)CC1 [Example 60, 1-(5-fluoropyridin-2-yl)-N-{6-[4-(2-hydroxy-2-methylpropyl)piperidin-1-yl]-5-methylpyridin-3-yl}-5-methyl-1H-pyrazole-4-carboxamide]
43.6 | Cc1cc(NC(=O)c2csc(-c3ccc(Cl)cc3)c2)cnc1N1CCC(C(C)(C)O)CC1 [Example 79, 2-(4-chlorophenyl)-N-{6-[4-(1-hydroxy-1-methylethyl)piperidin-1-yl]-5-methylpyridin-3-yl}thiophene-4-carboxamide]
51 | Cc1cc(NC(=O)c2cnn(-c3ccc(F)cc3)c2C)cnc1N1CCC(C(C)(C)O)CC1 [Example 54, 1-(4-fluorophenyl)-N-{6-[4-(1-hydroxy-1-methylethyl)piperidin-1-yl]-5-methylpyridin-3-yl}-5-methyl-1H-pyrazole-4-carboxamide]
12 | Cc1cc(NC(=O)c2cnn(-c3ccc(C4CC4)cn3)c2C)cnc1N1CCC(CC(C)(C)O)CC1 [Example 64, 1-(5-cyclopropylpyridin-2-yl)-N-{6-[4-(2-hydroxy-2-methylpropyl)piperidin-1-yl]-5-methylpyridin-3-yl}-5-methyl-1H-pyrazole-4-carboxamide]
30.4 | Cc1cc(NC(=O)c2cnc(-c3ccc(C(F)(F)F)cc3)n2C)cnc1N1CCC(C(C)(C)O)CC1 [Example 76, N-{6-[4-(1-hydroxy-1-methylethyl)piperidin-1-yl]-5-methylpyridin-3-yl}-3-methyl-2-[4-(trifluoromethyl)phenyl]-3H-imidazole-4-carboxamide]
15.6 | Cc1cc(NC(=O)c2ccc(-c3ccc(Cl)cc3)s2)cnc1N1CCC(C(C)(C)O)CC1 [Example 78, 5-(4-chlorophenyl)-N-{6-[4-(1-hydroxy-1-methylethyl)piperidin-1-yl]-5-methylpyridin-3-yl}thiophene-2-carboxamide]
53.1 | CC(=O)OC(C)C1CCN(c2ncc(NC(=O)c3cnn(-c4ccc(C(F)(F)F)cn4)c3C)cc2C)CC1 (stereo not drawn) [Example 52, acetic acid {1-[1-(3-methyl-5-{5-methyl-1-[5-(trifluoromethyl)pyridin-2-yl]-1H-pyrazole-4-carboxamide}pyridin-2-yl)piperidin-4-yl]ethyl}ester]
56.4 | Cc1cc(NC(=O)c2cnn(-c3ncc(Cl)cc3Cl)c2C)cnc1N1CCC(C(C)(C)F)CC1 [Example 48, 1-(3,5-dichloropyridin-2-yl)-N-{6-[4-(1-fluoro-1-methylethyl)piperidin-1-yl]-5-methylpyridin-3-yl}-5-methyl-1H-pyrazole-4-carboxamide]

The remaining lines, values behind:

Compound | IC50 [nM]
N#Cc1cc(NC(=O)c2cnn(-c3ccc(Cl)cc3)c2C2CC2)cnc1N1CCC(CCO)CC1 [Example 22, 1-(4-chlorophenyl)-N-{5-cyano-6-[4-(2-hydroxyethyl)piperidin-1-yl]pyridin-3-yl}-5-cyclopropyl-1H-pyrazole-4-carboxamide] | 194
COCCC1CCN(c2ncc(NC(=O)c3cnn(-c4ccc(C(F)(F)F)cn4)c3C)cc2C)CC1 [Example 31] | 158
Cc1c(C(=O)Nc2cnc(N3CCC(=O)CC3)c(C#N)c2)cnn1-c1ccc(Cl)cc1 [Example 29, 1-(4-chlorophenyl)-N-[5-cyano-6-(4-oxopiperidin-1-yl)pyridin-3-yl]-5-methyl-1H-pyrazole-4-carboxamide] | 168
CC(=O)OCCC1CCN(c2ncc(NC(=O)c3cnn(-c4ccc(F)cc4)c3C)cc2C#N)CC1 [Example 25, acetic acid [2-(1-{3-cyano-5-[1-(4-fluorophenyl)-5-methyl-1H-pyrazole-4-carboxamide]pyridin-2-yl}piperidin-4-yl)ethyl]ester] | 161
CC(=O)OC1CCN(c2ncc(NC(=O)c3cnn(-c4ccc(Cl)cc4)c3C)cc2C#N)CC1 [Example 19, acetic acid (1-{5-[1-(4-chlorophenyl)-5-methyl-1H-pyrazole-4-carboxamide]-3-cyanopyridin-2-yl}piperidin-4-yl)ester] | 213
Cc1ccc(-n2ncc(C(=O)Nc3cnc(N4CCC(C(C)(C)F)CC4)c(C)c3)c2C)cc1 [Example 32, N-{6-[4-(1-fluoro-1-methylethyl)piperidin-1-yl]-5-methylpyridin-3-yl}-5-methyl-1-(4-methylphenyl)-1H-pyrazole-4-carboxamide] | 155
Cc1cc(NC(=O)c2ccn(-c3ccc(C#N)cn3)c2)cnc1N1CCC(C(C)(C)O)CC1 [Example 46, 1-(5-cyanopyridin-2-yl)-N-{6-[4-(1-hydroxy-1-methylethyl)piperidin-1-yl]-5-methylpyridin-3-yl}-1H-pyrrole-3-carboxamide] | 60.8
Cc1cc(NC(=O)c2cnn(-c3ccc(Cl)cc3)c2C)cnc1N1CCC(C(C)(C)F)CC1 [Example 41, 1-(4-chlorophenyl)-N-{6-[4-(1-fluoro-1-methylethyl)piperidin-1-yl]-5-methylpyridin-3-yl}-5-methyl-1H-pyrazole-4-carboxamide] | 112
CC(=O)OCCC1CCN(c2ncc(NC(=O)c3cnn(-c4ccc(Cl)cc4)c3C)cc2C#N)CC1 [Example 40, acetic acid [2-(1-{5-[1-(4-chlorophenyl)-5-methyl-1H-pyrazole-4-carboxamide]-3-cyanopyridin-2-yl}piperidin-4-yl)ethyl]ester] | 116
Cc1cc(NC(=O)c2cnn(-c3ccc(C(F)(F)F)cc3)c2C)cnc1N1CCC(O)CC1 [Example 15, N-[6-(4-hydroxypiperidin-1-yl)-5-methylpyridin-3-yl]-5-methyl-1-[4-(trifluoromethyl)phenyl]-1H-pyrazole-4-carboxamide] | 293
Cc1cc(NC(=O)c2ccn(-c3ccc(C#N)cn3)c2)cnc1N1CCC(C(C)(C)F)CC1 [Example 24, 1-(5-cyanopyridin-2-yl)-N-{6-[4-(1-fluoro-1-methylethyl)piperidin-1-yl]-5-methylpyridin-3-yl}-1H-pyrrole-3-carboxamide] | 180
Cc1cc(NC(=O)c2cnn(-c3ccccn3)c2C)cnc1N1CCC(CC(C)(C)O)CC1 [Example 26, N-{6-[4-(2-hydroxy-2-methylpropyl)piperidin-1-yl]-5-methylpyridin-3-yl}-5-methyl-1-(pyridin-2-yl)-1H-pyrazole-4-carboxamide] | 173
Cc1cc(NC(=O)c2cnn(-c3ccc(F)cc3)c2C)cnc1N1CCC(C(C)(C)F)CC1 [Example 34, N-{6-[4-(1-fluoro-1-methylethyl)piperidin-1-yl]-5-methylpyridin-3-yl}-1-(4-fluorophenyl)-5-methyl-1H-pyrazole-4-carboxamide] | 151
Cc1cc(NC(=O)c2cnn(-c3ccc(Cl)cn3)c2C)cnc1N1CCC(C(C)(C)F)CC1 [Example 38, 1-(5-chloropyridin-2-yl)-N-{6-[4-(1-fluoro-1-methylethyl)piperidin-1-yl]-5-methylpyridin-3-yl}-5-methyl-1H-pyrazole-4-carboxamide] | 140
